Measured values taken from US10513521B2, “Compositions and methods for inhibiting BMP” (The Brigham and Women's Hospital, Inc., priority 2014, dated 2019).
Residue numbers refer to the chain shown, from its start.

How the values were obtained:
[1] = Cell-based assay, TGFb1 (Cell IC50)
ALK1 = ALK1 (Homo sapiens, UniProt P37023); experiment: TR-FRET enzymatic ALK kinase assay, ALK1
Procedure: (§1) Briefly, the ALKs enzymatic assay was initiated by dispense 2.5 μl enzyme in 1× kinase reaction buffer. The assay plate was then added with compounds followed by incubation at room temperature for 10 minutes. Then 2.5 μl/well substrate was added.

ALK5 = target: T1, ALK5 (Homo sapiens, UniProt P36897); experiment: TR-FRET enzymatic ALK kinase assay, ALK5
T1 sequence (P36897 34-503): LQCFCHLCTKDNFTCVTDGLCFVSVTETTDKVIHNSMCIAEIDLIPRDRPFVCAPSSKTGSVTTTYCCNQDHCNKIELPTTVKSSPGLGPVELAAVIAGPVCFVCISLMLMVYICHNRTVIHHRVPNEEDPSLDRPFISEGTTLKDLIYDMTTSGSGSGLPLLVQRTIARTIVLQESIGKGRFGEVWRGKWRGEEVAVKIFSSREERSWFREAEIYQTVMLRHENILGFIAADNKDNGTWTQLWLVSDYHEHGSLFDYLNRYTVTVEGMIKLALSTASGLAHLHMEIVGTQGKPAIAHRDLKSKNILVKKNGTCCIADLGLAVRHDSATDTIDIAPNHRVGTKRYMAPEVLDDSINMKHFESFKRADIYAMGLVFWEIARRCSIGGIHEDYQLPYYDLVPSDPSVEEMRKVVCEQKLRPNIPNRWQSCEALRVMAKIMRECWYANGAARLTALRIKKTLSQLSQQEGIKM
Procedure: Six ALK kinase enzyme assays were developed for determination of compound activities on ALK1, ALK2, ALK3, ALK4, ALK5 and ALK6.
as §1

ALK3 = ALK3 (Homo sapiens, UniProt P36894); experiment: TR-FRET enzymatic ALK kinase assay, ALK3
Sequence of ALK3 (P36894 24-532): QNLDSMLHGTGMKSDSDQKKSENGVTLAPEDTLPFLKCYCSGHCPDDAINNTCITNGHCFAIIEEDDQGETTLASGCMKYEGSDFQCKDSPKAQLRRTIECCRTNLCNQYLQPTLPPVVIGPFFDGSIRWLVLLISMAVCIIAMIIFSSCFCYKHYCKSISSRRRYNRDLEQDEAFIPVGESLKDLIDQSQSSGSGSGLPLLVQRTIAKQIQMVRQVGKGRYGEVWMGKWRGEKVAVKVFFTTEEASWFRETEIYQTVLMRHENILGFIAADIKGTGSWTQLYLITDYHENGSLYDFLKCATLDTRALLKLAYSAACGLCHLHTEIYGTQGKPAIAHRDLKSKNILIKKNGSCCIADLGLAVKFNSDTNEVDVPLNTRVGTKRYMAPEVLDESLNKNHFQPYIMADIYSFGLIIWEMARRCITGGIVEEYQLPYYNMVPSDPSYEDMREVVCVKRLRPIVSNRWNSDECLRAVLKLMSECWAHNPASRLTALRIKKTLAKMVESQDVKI
Procedure: as §1

ALK4 = target: T2, ALK4 (Homo sapiens, UniProt P36896); experiment: TR-FRET enzymatic ALK kinase assay, ALK4
T2 sequence (P36896 24-505): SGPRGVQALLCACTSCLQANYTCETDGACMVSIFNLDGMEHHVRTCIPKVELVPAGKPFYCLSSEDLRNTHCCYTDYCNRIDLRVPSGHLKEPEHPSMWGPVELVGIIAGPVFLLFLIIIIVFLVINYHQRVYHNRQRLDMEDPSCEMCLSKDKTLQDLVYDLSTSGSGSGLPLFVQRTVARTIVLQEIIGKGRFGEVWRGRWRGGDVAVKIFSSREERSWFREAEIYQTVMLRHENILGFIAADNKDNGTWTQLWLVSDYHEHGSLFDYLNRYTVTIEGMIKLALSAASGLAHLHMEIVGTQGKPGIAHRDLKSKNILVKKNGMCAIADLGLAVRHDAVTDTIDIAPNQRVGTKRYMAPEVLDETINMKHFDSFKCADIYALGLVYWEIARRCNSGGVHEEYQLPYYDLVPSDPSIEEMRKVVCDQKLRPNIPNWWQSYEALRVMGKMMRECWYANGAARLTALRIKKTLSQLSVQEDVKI
Procedure: as §1

ALK2 [2] = target: T3, ALK2 (Mus musculus, UniProt P37172); experiment: HTRF pSMAD1 cell-based ALK2 assay (C2C12 cells, BMP6 as agonist); settings: cell-based assay, BMP6; read-out: Cell IC50 BMP6
T3 construct: The C2C12 cell line was selected for the measurement of ALK2 activity using BMP6 as the agonist; host or cells: C2C12
T3 sequence (P37172 21-509): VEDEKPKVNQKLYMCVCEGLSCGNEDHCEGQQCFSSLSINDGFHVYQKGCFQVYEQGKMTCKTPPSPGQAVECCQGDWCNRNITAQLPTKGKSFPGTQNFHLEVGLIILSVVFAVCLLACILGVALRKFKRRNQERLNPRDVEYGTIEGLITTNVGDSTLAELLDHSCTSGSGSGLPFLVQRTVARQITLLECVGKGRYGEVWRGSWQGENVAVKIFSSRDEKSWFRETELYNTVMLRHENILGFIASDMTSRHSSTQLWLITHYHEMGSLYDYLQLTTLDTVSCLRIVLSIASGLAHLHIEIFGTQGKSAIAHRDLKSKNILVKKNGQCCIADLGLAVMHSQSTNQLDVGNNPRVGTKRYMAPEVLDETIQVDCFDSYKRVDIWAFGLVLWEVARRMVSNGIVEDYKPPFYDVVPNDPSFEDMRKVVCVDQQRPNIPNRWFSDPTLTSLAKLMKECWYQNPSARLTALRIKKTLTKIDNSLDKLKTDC
Summary of the method: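 Cells pre-starved, plated in 0.1% FBS medium for 4 h, compound added for 30 min, then stimulated 30 min with BMP9 (BAOEC) or BMP6 (C2C12). Phospho-SMAD1 measured by HTRF after overnight room-temperature detection incubation.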

ALK6 = ALK6 (Homo sapiens, UniProt O00238); experiment: TR-FRET enzymatic ALK kinase assay, ALK6
Sequence of ALK6 (O00238 14-502): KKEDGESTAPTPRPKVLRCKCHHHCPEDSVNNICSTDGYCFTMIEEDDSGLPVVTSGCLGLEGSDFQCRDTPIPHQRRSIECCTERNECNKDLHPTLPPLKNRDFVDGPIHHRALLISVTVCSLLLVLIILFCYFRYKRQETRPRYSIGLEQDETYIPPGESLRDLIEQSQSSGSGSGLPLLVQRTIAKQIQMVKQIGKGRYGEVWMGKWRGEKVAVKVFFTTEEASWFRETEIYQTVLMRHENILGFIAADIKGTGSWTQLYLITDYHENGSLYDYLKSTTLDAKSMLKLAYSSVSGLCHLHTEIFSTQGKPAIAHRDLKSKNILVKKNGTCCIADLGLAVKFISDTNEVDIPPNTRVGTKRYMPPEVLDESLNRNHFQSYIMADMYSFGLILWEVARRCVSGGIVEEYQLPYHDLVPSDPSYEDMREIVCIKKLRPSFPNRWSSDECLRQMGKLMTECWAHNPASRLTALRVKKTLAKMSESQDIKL
Procedure: as §1

ALK2 [3] = target: T4, ALK2 (Homo sapiens, UniProt Q04771); experiment: TR-FRET enzymatic ALK kinase assay, ALK2
T4 sequence (Q04771 21-509): T3 sequence (P37172 21-509) with V1M, Q10P, I121L, E162D, S310P
Procedure: as §1

Sequence of ALK1 (P37023 22-503): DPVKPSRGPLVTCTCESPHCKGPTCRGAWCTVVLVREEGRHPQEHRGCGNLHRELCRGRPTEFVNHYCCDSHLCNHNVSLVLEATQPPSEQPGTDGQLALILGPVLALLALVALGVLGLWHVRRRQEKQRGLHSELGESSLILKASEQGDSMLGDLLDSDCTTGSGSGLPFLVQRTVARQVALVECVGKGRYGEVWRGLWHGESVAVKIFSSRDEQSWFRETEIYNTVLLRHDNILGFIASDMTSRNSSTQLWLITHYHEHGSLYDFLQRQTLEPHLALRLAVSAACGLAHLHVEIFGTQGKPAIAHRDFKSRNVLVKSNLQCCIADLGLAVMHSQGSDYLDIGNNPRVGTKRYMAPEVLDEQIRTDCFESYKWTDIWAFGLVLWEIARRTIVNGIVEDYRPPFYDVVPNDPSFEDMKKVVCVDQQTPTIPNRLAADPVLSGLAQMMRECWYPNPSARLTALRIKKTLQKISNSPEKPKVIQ

Row | Structure (SMILES) | IC50 [1] | IC50 (ALK1) | IC50 (ALK5) | IC50 (ALK3) | IC50 (ALK4) | IC50 (ALK2 [2]) | IC50 (ALK6) | IC50 (ALK2 [3])
1 | NC(=O)c1ccc(-c2cnn3cc(-c4ccc(N5CCNCC5)cc4)cnc23)c2ccccc12 [Compound 2, 4-(6-(4-(piperazin-1-yl)phenyl)pyrazolo[1,5-a]pyrimidin-3-yl)-1-naphthamide] | 331 nM | 18 nM | 56600 nM | 147 nM | 11200 nM | 28 nM | 2070 nM | 4.5 nM
2 | NC(=O)c1cccc2c(-c3cnn4cc(-c5ccc(N6CCNCC6)cc5)cnc34)cccc12 [Compound 6, 5-(6-(4-(piperazin-1-yl)phenyl)pyrazolo[1,5-a]pyrimidin-3-yl)-1-naphthamide] | 764 nM | 31 nM | 11200 nM | 30 nM | 2690 nM | 21 nM | 105 nM | 7 nM
3 | CNC(=O)c1cccc2c(-c3cnn4cc(-c5ccc(N6CCNCC6)cc5)cnc34)cccc12 [Compound 7, N-methyl-5-(6-(4-(piperazin-1-yl)phenyl)pyrazolo[1,5-a]pyrimidin-3-yl)-1-naphthamide] | 2930 nM | 1590 nM |  | 598 nM | 30900 nM | 283 nM | 334 nM | 226 nM
4 | C[C@@H]1CNC[C@H](C)N1c1ccc(-c2cnc3c(-c4ccc(C(N)=O)c5ccccc45)cnn3c2)cc1 [Compound 9, 4-(6-(4-((2S,6R)-2,6-dimethylpiperazin-1-yl)phenyl)pyrazolo[1,5-a]pyrimidin-3-yl)-1-naphthamide] | 200 nM | 4 nM | 5430 nM | 42 nM | 920 nM | 11 nM | 225 nM | 6 nM
5 | NC(=O)c1ccc(-c2cnn3cc(-c4ccc(N5C[C@@H]6C[C@H]5CN6)cc4)cnc23)c2ccccc12 [Compound 11, 4-(6-(4-((1 S,4S)-2,5-diazabicyclo[2.2.1]heptan-2-yl)phenyl)pyrazolo[1,5-a]pyrimidin-3-yl)-1-naphthamide] | 645 nM | 30 nM | 7020 nM | 112 nM | 2990 nM | 55 nM | 2060 nM | 7 nM
6 | NC(=O)c1cccc2c(-c3cnn4cc(-c5ccc(N6C[C@@H]7C[C@H]6CN7)cc5)cnc34)cccc12 [Compound 12, 5-(6-(4-((1S,4S)-2,5-diazabicyclo[2.2.1]heptan-2-yl)phenyl)pyrazolo[1,5-a]pyrimidin-3-yl)-1-naphthamide] | 1240 nM | 34 nM | 21500 nM | 59 nM | 2810 nM | 68 nM | 260 nM | 8.3 nM
7 | N=C(N)c1ccc(-c2cnn3cc(-c4ccc(N5CCNCC5)cc4)cnc23)cc1 [Compound 14, 4-(6-(4-(piperazin-1-yl)phenyl)pyrazolo[1,5-a]pyrimidin-3-yl)benzimidamide] | 44100 nM | 3060 nM | 15600 nM | 17600 nM |  | 4200 nM | 16900 nM | 916 nM
8 | N=C(N)c1ccc(-c2cnn3cc(-c4ccc(N5CCNCC5)cc4)cnc23)c2ccccc12 [Compound 16, 4-(6-(4-(piperazin-1-yl)phenyl)pyrazolo[1,5-a]pyrimidin-3-yl)-1-naphthimidamide] | 13500 nM | 405 nM |  | 4930 nM | 73900 nM | 890 nM | 74800 nM | 84 nM
9 | CC(C)(CN1CCCCC1)Oc1ccc(-c2cnc3c(-c4ccc(C(N)=O)c5ccccc45)cnn3c2)cc1 [Compound 17, 4-(6-(4-((2-methyl-1-(piperidin-1-yl)propan-2-yl)oxy)phenyl)pyrazolo[1,5-a]pyrimidin-3-yl)-1-naphthamide] | 434 nM | 11 nM | 8580 nM | 62 nM | 2020 nM | 16 nM | 1240 nM | 5 nM
10 | C[C@@H]1CNC[C@H](C)N1c1ccc(-c2cnc3c(-c4ccc(C#N)c5ccccc45)cnn3c2)cc1 [Compound 19, 4-(6-(4-((2R,6S)-2,6-dimethylpiperazin-1-yl)phenyl)pyrazolo[1,5-a]pyrimidin-3-yl)-1-naphthonitrile] | 4440 nM | 574 nM | 151000 nM | 1100 nM | 4780 nM | 44 nM | 9840 nM | 94 nM
11 | C[C@@H]1CNC[C@H](C)N1c1ccc(-c2cnc3c(-c4cccc5c(CO)cccc45)cnn3c2)cc1 [Compound 20, (5-(6-(4-((2R,6S)-2,6-dimethylpiperazin-1-yl)phenyl)pyrazolo[1,5-a]pyrimidin-3-yl)naphthalen-1-yl)methanol] | 1550 nM | 22 nM | 21700 nM | 240 nM | 3960 nM | 14 nM | 3710 nM | 16 nM
12 | CC(=O)c1cccc2c(-c3cnn4cc(-c5ccc(N6[C@H](C)CNC[C@@H]6C)cc5)cnc34)cccc12 [Compound 24, 1-(5-(6-(4-((2R,6S)-2,6-dimethylpiperazin-1-yl)phenyl)pyrazolo[1,5-a]pyrimidin-3-yl)naphthalen-1-yl)ethanone] | 580 nM | 107 nM | 26900 nM | 59 nM | 1450 nM | 333 nM | 300 nM | 30 nM
13 | C[C@@H]1CNC[C@H](C)N1c1ccc(-c2cnc3c(-c4cccc5c(C#N)cccc45)cnn3c2)cc1 [Compound 25, 5-(6-(4-((2R,6S)-2,6-dimethylpiperazin-1-yl)phenyl)pyrazolo[1,5-a]pyrimidin-3-yl)-1-naphthonitrile] | 2580 nM | 75 nM | 5340 nM | 123 nM | 1210 nM | 114 nM | 568 nM | 27 nM
